Laboratory results reported in ChEMBL document CHEMBL6134853, “Design, Synthesis, and Biological Evaluation of Pyrrolo[1,2-a]quinoxalin-4(5H)-one Derivatives as Potent and Orally Available Noncovalent Bruton's Tyrosine Kinase (BTK) Inhibitors” (J Med Chem, 2025).
The source made the active and inactive calls. The calls are words filed in the database; no cut-off is given here.

Assays:
U-937 [1] = test: Antiproliferative activity against human U-937 cells expressing BTK assessed as inhibition of cell proliferation incubated for 48 hrs by CCK-8 assay; assay type: functional, cell-based; conditions: U-937, 48 h
Ramos = test: Antiproliferative activity against human Ramos cells expressing BTK assessed as inhibition of cell proliferation incubated for 48 hrs by CCK-8 assay; assay type: functional, cell-based
[2] = Cmax in male Sprague-Dawley rat at 10 mg/kg, po measured up to 5 hrs by LC-MS/MS analysis; assay type: ADME, organism-based; conditions: in vivo
[3] = AUC (0 to t) in male Sprague-Dawley rat at 10 mg/kg, po measured up to 24 hrs by LC-MS/MS analysis; assay type: ADME, organism-based; conditions: in vivo
[4] = target: T1, Tyrosine-protein kinase BTK (Homo sapiens, UniProt Q06187); test: Inhibition of BTK (unknown origin) at 100 nM relative to control
[5] = target: T1, Tyrosine-protein kinase BTK; test: Inhibition of BTK phosphorylation at Y223 residue in anti-IgM induced human Ramos cells preincubated with compound for 4 hrs followed by anti-IgM induction and measured after 15 mins by Western blot analysis; assay type: cell-based; conditions: dose <= 1.0 µM, time 255.0 min
[6] = target: T2, 1-phosphatidylinositol 4,5-bisphosphate phosphodiesterase gamma-2 (Homo sapiens) (UniProt P16885); test: Inhibition of PLCgamma2 phosphorylation at Y1217 residue in anti-IgM induced human Ramos cells preincubated with compound for 4 hrs followed by anti-IgM induction and measured after 15 mins by Western blot analysis; assay type: cell-based; conditions: dose <= 1.0 µM, time […]
T2 sequence (whole entry): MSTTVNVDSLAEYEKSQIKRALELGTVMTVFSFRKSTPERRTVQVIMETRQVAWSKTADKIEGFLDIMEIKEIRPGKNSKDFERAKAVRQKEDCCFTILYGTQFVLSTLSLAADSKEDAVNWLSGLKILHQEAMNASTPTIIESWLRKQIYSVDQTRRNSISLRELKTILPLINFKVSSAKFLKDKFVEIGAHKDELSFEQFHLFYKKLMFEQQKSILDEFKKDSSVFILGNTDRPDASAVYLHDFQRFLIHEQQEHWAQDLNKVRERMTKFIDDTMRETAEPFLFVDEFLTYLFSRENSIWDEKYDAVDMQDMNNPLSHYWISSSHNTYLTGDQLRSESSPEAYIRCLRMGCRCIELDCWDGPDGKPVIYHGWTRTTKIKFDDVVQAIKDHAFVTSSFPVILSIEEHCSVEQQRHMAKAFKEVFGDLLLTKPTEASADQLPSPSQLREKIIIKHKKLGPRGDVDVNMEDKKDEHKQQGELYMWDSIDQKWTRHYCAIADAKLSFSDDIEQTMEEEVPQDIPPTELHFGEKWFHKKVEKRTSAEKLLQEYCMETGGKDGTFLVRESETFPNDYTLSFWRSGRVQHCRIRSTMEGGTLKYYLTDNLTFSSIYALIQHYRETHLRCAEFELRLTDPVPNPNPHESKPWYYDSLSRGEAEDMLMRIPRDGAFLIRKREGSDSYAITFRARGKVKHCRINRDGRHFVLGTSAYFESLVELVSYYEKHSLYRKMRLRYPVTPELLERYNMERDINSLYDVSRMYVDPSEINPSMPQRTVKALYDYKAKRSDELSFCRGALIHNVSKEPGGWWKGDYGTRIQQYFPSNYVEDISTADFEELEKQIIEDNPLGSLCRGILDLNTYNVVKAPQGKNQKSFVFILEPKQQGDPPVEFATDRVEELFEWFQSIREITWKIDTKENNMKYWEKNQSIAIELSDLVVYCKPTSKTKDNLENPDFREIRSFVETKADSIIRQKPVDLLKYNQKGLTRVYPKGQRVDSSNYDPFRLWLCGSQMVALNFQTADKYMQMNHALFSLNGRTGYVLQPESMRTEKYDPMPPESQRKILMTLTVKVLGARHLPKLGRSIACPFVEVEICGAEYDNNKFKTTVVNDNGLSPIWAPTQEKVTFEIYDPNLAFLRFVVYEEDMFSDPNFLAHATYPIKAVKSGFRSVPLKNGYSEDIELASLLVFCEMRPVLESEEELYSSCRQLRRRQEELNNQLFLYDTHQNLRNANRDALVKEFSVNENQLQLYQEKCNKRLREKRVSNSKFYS

U-937 [7] = test: Antitumor activity against human U-937 cells xenografted in BALB/c mouse assessed as tumor growth inhibition at 50 mg/kg, po administered once a day for 14 days; assay type: functional; conditions: U-937, 336 h, time 14 day, read-out: TGI
U-937 [8] = test: Antitumor activity against human U-937 cells xenografted in BALB/c mouse assessed as tumor growth inhibition at 100 mg/kg, po administered once a day for 14 days; assay type: functional; conditions: U-937, 336 h, time 14 day, read-out: TGI
[9] = Toxicity in BALB/c mouse xenografted with human U-937 cells assessed as inflammatory infiltration in lung at 50 to 100 mg/kg, po administered once a day for 14 days by H and E staining based analysis; assay type: organism-based; conditions: in vivo, 336 h, dose 50-100 mg/kg, time 14 day

T1 sequence (Q06187 whole entry): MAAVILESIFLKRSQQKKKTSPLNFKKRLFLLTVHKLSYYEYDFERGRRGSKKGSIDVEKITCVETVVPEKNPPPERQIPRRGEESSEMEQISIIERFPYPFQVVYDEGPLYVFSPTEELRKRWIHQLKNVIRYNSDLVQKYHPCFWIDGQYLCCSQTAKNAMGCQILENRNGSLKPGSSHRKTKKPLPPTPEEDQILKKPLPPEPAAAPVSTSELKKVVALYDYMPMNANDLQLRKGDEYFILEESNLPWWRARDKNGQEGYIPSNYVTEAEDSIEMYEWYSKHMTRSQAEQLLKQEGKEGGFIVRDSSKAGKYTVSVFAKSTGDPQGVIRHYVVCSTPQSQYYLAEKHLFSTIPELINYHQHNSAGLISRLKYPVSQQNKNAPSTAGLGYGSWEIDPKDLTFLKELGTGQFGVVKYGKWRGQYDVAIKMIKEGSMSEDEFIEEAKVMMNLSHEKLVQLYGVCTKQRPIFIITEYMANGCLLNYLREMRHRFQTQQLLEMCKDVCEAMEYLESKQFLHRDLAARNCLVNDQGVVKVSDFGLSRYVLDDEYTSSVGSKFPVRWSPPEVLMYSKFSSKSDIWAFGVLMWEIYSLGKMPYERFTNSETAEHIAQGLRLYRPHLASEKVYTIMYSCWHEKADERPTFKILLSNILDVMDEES

IC50 (U-937 [1]): 7.9 µM
IC50 (Ramos): 8 µM
Cmax [2]: 62.4 ng/mL
AUC(0-t) at 24 h [3]: 161 ng·h/mL
inhibition [4]: Active
inhibition [5]: Dose-dependent-effect
inhibition [6]: Dose-dependent-effect
Compound: CC(C)(O)c1ccc2c(c1)[nH]c(=O)c1ccc(-c3cccc(-n4c(=O)[nH]c5c(F)cccc5c4=O)c3F)n12
inhibition in vivo at 50 mg/kg (U-937 [7]): 64.4%
inhibition in vivo at 100 mg/kg (U-937 [8]): 74.9%
Activity [9]: Non-toxic
